Key:
Experiment in all cases: Mycelial growth inhibition on agar (contact activity)
Format in all cases: cell-based
Venturia inaegualis = settings: 120 h, Kartoffel-Glukose-Nährmedium, read-out: Myzelhemmung in %
Summary of the method: (§1)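 Compound dissolved in water and mixed into potato-glucose agar poured into dishes. Mycelium stab-inoculated after 24 h, then incubated 5 days at 24–26 °C. Colony diameters measured on day 5, and % mycelial growth inhibition calculated by Abbott's formula.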

Fusarium moniliforme = settings: Fusarium verticillioides, 120 h, Kartoffel-Glukose-Nährmedium, read-out: Myzelhemmung in %
Botrytis cinerea = settings: 120 h, Kartoffel-Glukose-Nährmedium, read-out: Myzelhemmung in %
Summary of the method: as §1

Fusarium sambucinum = settings: Fusarium sambucinum, 120 h, Kartoffel-Glukose-Nährmedium, read-out: Myzelhemmung in %
Verticillium dahliae = settings: 120 h, Kartoffel-Glukose-Nährmedium, read-out: Myzelhemmung in %
Summary of the method: as §1

C=COCCNC(=S)S [Kalium-N-(vinyloxyäthyl)dithiocarbamat]
100%: inhibition of growth at 0.01 % (Venturia inaegualis; Wirkstoffkonzentration 0,01 %) | inhibition of growth at 0.003 % (Venturia inaegualis; Wirkstoffkonzentration 0,003 %) | inhibition of growth at 0.01 % (Fusarium moniliforme; Wirkstoffkonzentration 0,01 %) | inhibition of growth at 0.003 % (Fusarium moniliforme; Wirkstoffkonzentration 0,003 %) | inhibition of growth at 0.01 % (Botrytis cinerea; Wirkstoffkonzentration 0,01 %) | inhibition of growth at 0.003 % (Botrytis cinerea; Wirkstoffkonzentration 0,003 %) | inhibition of growth at 0.01 % (Fusarium sambucinum; Wirkstoffkonzentration 0,01 %) | inhibition of growth at 0.003 % (Fusarium sambucinum; Wirkstoffkonzentration 0,003 %) | inhibition of growth at 0.01 % (Verticillium dahliae; Wirkstoffkonzentration 0,01 %) | inhibition of growth at 0.003 % (Verticillium dahliae; Wirkstoffkonzentration 0,003 %)

Source: patent publication EP0252983B1, “SALTS OF N-(VINYLOXIETHYL)DITHIOCARBAMIC ACID, METHOD OF OBTAINING THEREOF AND […] ON THEM” (priority 1985, dated 1987)
